According to patent US10391150B2, “Treatments for migraine and related disorders” (The University of Chicago, priority 2011, dated 2019):

B1: Interferon-gamma (protein, listed as Homo sapiens)
chain: MKYTSYILAFQLCIVLGSLGCYCQDPYVKEAENLKKYFNAGHSDVADNGTLFLGILKNWKEESDRKIMQSQIVSFYFKLFKNFKDDQSIQKSVETIKEDMNVKFFNSNKKKRDDFEKLTNYSVTDLNVQRKAIHELIQVMAELSPAAKTGKRKRSQMLFRGRRASQ

What was measured:
[1] = tested on: SD in neocortex and hippocampus of anesthetized rat; assay: SD threshold in vivo (0.5 M KCl injection) after nasal administration; details: control 1-8 nL
Description: Images show experimental setups for nasal administration and testing. (FIG. 7A) Nasal injection setup showing heat lamp and thermo-regulator that maintains temperature at 37° C. plus nose cone used to deliver isoflurane anesthesia. (FIG. 7B) Operator is shown administering nasal IGF-1 solution, which is performed in a fume hood to adequately vent isoflurane from nose cone. (FIG. 7C) Image illustrates standard electrophysiology setup. Anesthetized animal is placed into a standard electrophysiology holder and anesthesia maintained by a nose cone delivering 3% isoflurane in oxygen. Arterial oxygen saturation is monitored with a pulse-oximeter. Animals are warmed to 37.5° C. with a heating plate. SD is induced by progressively injecting larger volumes of 0.5 M KCl from an 8 μm diameter microelectrode. SD is registered with a second microelectrode used for DC recordings placed more caudally. After SD is evoked by a given injection pulse, the stimulating electrode is withdrawn and a volume re-injected under mineral oil. The diameter of the resultant KCl injection sphere is then measured off line using a compound microscope and the injection volume calculated. For example, in the above whole animal experiments it took 1-8 nL of 0.5 M KCl to evoke SD in control brain regions while after acute IGF-1 this amount rose to 67-109 nL. A day after IGF-1 treatment the volume needed to evoked SD was 34-48 nL. IFN-γ treatment required 338 nL of 0.5 M KCl a day after treatment and IL-11 required 67-200 nL.
Rats (FIGS. 6 and 7) are anesthetized with inhalational isoflurane and kept warm. While anesthetized, animals are placed in a supine position and 50 μL of sterile drug (i.e., IFN-γ, IGF-1, or IL-11) solution [or sterile saline vehicle (sham control)] is administered nasally by delivering 5 μL alternating between the left and right naris every 2 min over 20 minutes. Animals are given nasal drug treatments daily at the same time for 7 days before subsequent experiments. Doses for all 3 agents begin with the effective doses noted in our work using slice cultures (1×), then include others (0.1× and 10×). The inventors base this strategy on the fact that the effective culture dose for IGF-1 (40 ng/mL) closely approximates the dose used in vivo (143 μg/kg).
This approach was applied to measurement of SD threshold (FIG. 10) after treatment (FIG. 7) with nasally administered IGF-1 (150 μg), IL-11 (1 μg), IFN-γ (50,000 units), and insulin (20 μg). […] Resistance against SD was always greater in hippocampus compared to neocortex (n=4, controls; n=3, acutely after IGF-1; n=6, one day after IGF-1; n=6, one day after IL-11; n=6, one day after IFN-γ; and n=3, acutely after insulin).
Nasal administration followed by SD threshold evaluation in vivo. Vehicle or human recombinant IGF-1 (150 μg) is administered intranasally. SD threshold is established by injection of nanoliter volumes of 0.5 M KCl into neocortex or hippocampus (−2.0 mm from Bregma and 1.5 mm lateral from midline at either 750 μm or 2,800 μm into brain, respectively) using a thin-walled glass pipette and Picospritzer. Once a threshold is established, it is confirmed two more times, with an exemplary record from a vehicle-sham animal shown below. […] The diameter of the injected sphere is then measured using a compound microscope and used to calculate the injected volume, then moles of potassium. […]

[2] = tested on: OS from cLTP in hippocampal slice cultures; assay: OS / reactive oxygen species generated from chemical long-term potentiation (cLTP) in slice cultures; type: cell-based, rat; details: 3 days treatment (IFN-γ 500 U/mL; IL-11; IGF-1), compared to shams
Description: This beneficial effect of low-level IFN-γ is supported by results from rats. In rats, enrichment, which occurs with hippocampal learning, led to a significant elevation in hippocampal T-cells, IFN-γ and MBP.
Experiments were performed in rat hippocampal slices cultures and SD induced as previously described (Pusic et al., 2011). Results were derived from n≥3-6/group. […] This is consistent with the neural activity increase seen after SD, which mimics the hyperexcitability evident in migraine patients.
This prompted the inventors to examine whether insulin could reduce SD susceptibility by increasing CA3 pyramidal neuron bursting. The inventors induced SD trans-synaptically in rat HSC using electrical stimuli (100 μs pulses @ 10 Hz for 1 s) ranging from 1 to 10,000 nC in order to determine SD threshold in sham and experimental groups (Pusic et al., 2011). Results were based on n≥3-6/group. […] This insulin dose approximates the pharmacological levels seen in humans treated with nasal insulin. […] The inventors hypothesized that the effect of insulin occurred through IGF-1 receptor cross-talk.
The inventors use a well-accepted method for inducing cLTP in slice cultures (Kraig et al., 2010; Otmakhov et al., 2004a; Otmakhov et al., 2004b; Kopec et al., 2006). The protocol consists of raising cAMP levels and increasing synaptic activity using rolipram/forskolin applied in a Mg^2+-free Ringer's solution (36° C.) for 5 min, then allowing slices to recover in normal media.

[3] = a day after nasal treatment (IGF-1 150 μg; IL-11 1 μg; IFN-γ 50,000 units)

Molecule | volume of 0.5 M KCl needed to evoke SD [1, 3] [nL] | volume of 0.5 M KCl needed to evoke SD ([1]; acutely after nasal treatment (IGF-1 150 μg; insulin 20 μg)) [nL] | OS / reactive oxygen species generated from cLTP [2]
Insulin-like growth factor 1 [IGF-1] | 34 to 48 | 67 to 109 | significant reduction in OS from cLTP
B1 | 338 | – | significantly reduced reactive oxygen species
